± gives the expanded uncertainty stated by the source.
Assays:
[1] = for vapor or sublimation pressure: Gas chromatography; for Normal melting temperature: Crystal
[2] = Molar enthalpy of transition or fusion; settings: Crystal; DSC

Structure (SMILES) | vapor or sublimation pressure ([1]; 298.15 K, Metastable liquid) | vapor or sublimation pressure ([1]; 310 K, Metastable liquid) | vapor or sublimation pressure ([1]; 320 K, Metastable liquid) | vapor or sublimation pressure ([1]; 330 K, Metastable liquid) | vapor or sublimation pressure ([1]; 340 K, Metastable liquid) | vapor or sublimation pressure ([1]; 350 K, Metastable liquid) | Molar enthalpy of transition or fusion [2] | Normal melting temperature ([1]; DTA) | vapor or sublimation pressure ([1]; 360 K, Liquid) | vapor or sublimation pressure ([1]; 370 K, Liquid) | vapor or sublimation pressure ([1]; 380 K, Liquid) | vapor or sublimation pressure ([1]; 390 K, Liquid) | vapor or sublimation pressure ([1]; 400 K, Liquid) | vapor or sublimation pressure ([1]; 410 K, Liquid) | vapor or sublimation pressure ([1]; 420 K, Liquid) | vapor or sublimation pressure ([1]; 430 K, Liquid) | vapor or sublimation pressure ([1]; 440 K, Liquid) | vapor or sublimation pressure ([1]; 450 K, Liquid) | also measured
CC1COCc2cc3c(cc21)C(C)(C)C(C)C3(C)C (stereo not drawn) [Galaxolide] | 2.6e-05 ± 8e-06 kPa | 9.9e-05 ± 2.9e-05 kPa | 0.00027 ± 8e-05 kPa | 0.00071 ± 0.00019 kPa | 0.0017 ± 0.0004 kPa | 0.0038 ± 0.0009 kPa |  |  |  |  |  |  |  |  |  |  |  |  | vapor or sublimation pressure ([1]; 360 K, Metastable liquid): 0.0081 ± 0.0018 kPa; vapor or sublimation pressure ([1]; 370 K, Metastable liquid): 0.016 ± 0.003 kPa; vapor or sublimation pressure ([1]; 380 K, Metastable liquid): 0.032 ± 0.006 kPa; vapor or sublimation pressure ([1]; 390 K, Metastable liquid): 0.058 ± 0.009 kPa; vapor or sublimation pressure ([1]; 400 K, Metastable liquid): 0.1 ± 0.014 kPa; vapor or sublimation pressure ([1]; 410 K, Metastable liquid): 0.16 ± 0.022 kPa; vapor or sublimation pressure ([1]; 420 K, Metastable liquid): 0.29 ± 0.035 kPa; vapor or sublimation pressure ([1]; 430 K, Metastable liquid): 0.46 ± 0.055 kPa; vapor or sublimation pressure ([1]; 440 K, Metastable liquid): 0.72 ± 0.088 kPa; vapor or sublimation pressure ([1]; 450 K, Metastable liquid): 1.1 ± 0.14 kPa; vapor or sublimation pressure ([1]; 460 K, Metastable liquid): 1.6 ± 0.16 kPa; vapor or sublimation pressure ([1]; 470 K, Metastable liquid): 2.4 ± 0.24 kPa; vapor or sublimation pressure ([1]; 480 K, Metastable liquid): 3.4 ± 0.34 kPa; vapor or sublimation pressure ([1]; 490 K, Metastable liquid): 4.8 ± 0.48 kPa; vapor or sublimation pressure ([1]; 500 K, Metastable liquid): 6.6 ± 0.66 kPa
c1ccc2ccccc2c1 [naphthalene] |  |  |  |  |  |  | 4.57 ± 0.108 kcal/mol | 79.2 ± 1.4 °C |  |  |  |  |  |  |  |  |  |  | 
CC1(C)CCC[C@]2(C)[C@H]3CCO[C@]3(C)CC[C@@H]12 [(-)-Ambroxide] | 0.00012 ± 3e-05 kPa | 0.00039 ± 0.00011 kPa | 0.00096 ± 0.00025 kPa | 0.0023 ± 0.0006 kPa | 0.0049 ± 0.0012 kPa |  | 4.85 ± 0.191 kcal/mol | 72.7 ± 1.3 °C | 0.02 ± 0.004 kPa | 0.038 ± 0.007 kPa | 0.069 ± 0.012 kPa | 0.12 ± 0.018 kPa | 0.2 ± 0.026 kPa | 0.32 ± 0.039 kPa | 0.51 ± 0.057 kPa | 0.77 ± 0.086 kPa | 1.1 ± 0.13 kPa | 1.7 ± 0.2 kPa | vapor or sublimation pressure ([1]; 350 K, Liquid): 0.01 ± 0.002 kPa; vapor or sublimation pressure ([1]; 460 K, Liquid): 2.4 ± 0.24 kPa; vapor or sublimation pressure ([1]; 470 K, Liquid): 3.4 ± 0.34 kPa; vapor or sublimation pressure ([1]; 480 K, Liquid): 4.7 ± 0.47 kPa; vapor or sublimation pressure ([1]; 490 K, Liquid): 6.3 ± 0.63 kPa; vapor or sublimation pressure ([1]; 500 K, Liquid): 8.4 ± 0.84 kPa; Normal melting temperature ([1]; visual observation): 75.00 ± 3 °C
c1ccc2c(c1)oc1ccccc12 [dibenzo[bd]furan] | 0.0011 ± 0.0001 kPa | 0.0031 ± 0.0003 kPa | 0.007 ± 0.0007 kPa | 0.015 ± 0.002 kPa | 0.03 ± 0.003 kPa | 0.058 ± 0.006 kPa |  |  | 0.11 ± 0.011 kPa | 0.18 ± 0.018 kPa | 0.31 ± 0.031 kPa | 0.51 ± 0.051 kPa | 0.8 ± 0.08 kPa | 1.2 ± 0.12 kPa | 1.8 ± 0.18 kPa | 2.6 ± 0.26 kPa | 3.7 ± 0.37 kPa | 5.2 ± 0.52 kPa | 
